Reference: paper PMC10535219, “Discovery and Potential Utility of a Novel Non-Invasive Ocular Delivery Platform” (Pharmaceutics, 2023)
Like-named read-outs stand apart in the source and are kept apart here.

Assay: Biodisposition of JV-DE1 and JV-MD2 delivered via NIODP (periorbital skin) in non-human primates
Format: in vivo, cynomolgus monkeys
Details: for Cmax / concentration at 24 h / concentration at 3 h / concentration at 6 h / concentration at 0.5 h: cynomolgus, cynomolgus monkey
Description: All experiments were performed at Medicilon. […] A pen brush was used to dose each formulation with three to four circular motions for even distribution. The doses of the test articles were selected based on their solubility/concentration with the maximum deliverable volume on the periorbital skin of the animals. The administered dose was calculated by the weight difference of the pen brush before and after administration. Animals were restrained from eye rubbing in restraint chairs for 2 h after dosing, with access to food and drink. A blood sample was collected from one of the study animals at pre-dosing. For every time point of 0.5, 3, 6, and 24 h post-dose, one animal was euthanized and the ocular tissues (upper eyelid, cornea, retina, and vitreous humor) of both eyes were collected. Plasma samples were collected before each euthanization.
For the convenience of tissue processing and sample extraction, only upper eyelids were collected to represent the entirety of the periorbital tissue. Ocular tissues were homogenized by adding a 9-fold volume of 50% methanol/H2O per gram of tissue. For the LC-MS/MS sample preparation, a 50 μL aliquot of plasma, aqueous humor, vitreous humor, or tissue homogenate was thoroughly mixed with a 250 μL extraction solution of CHCl3/EtOH (1:1); then, a 210 μL supernatant of the samples was transferred to a 96-well plate after centrifugation. The samples were evaporated in nitrogen gas (N2) until dried. Each sample was redissolved in 200 μL MeOH, of which 2 µL was injected for the LC-MS/MS analysis.
The LC system was the same as that described in Section 2. The MS analysis was performed using a Triple Quad 5500 with an ESI ion source, and the data acquisition and control system were Analyst 1.6.3 software from Applied Biosystems/MDS Sciex.
The LC/MS conditions for JV-DE1 are described in Supplementary Table S2. The LC conditions were as follows: ACQUITY UPLC ® BEH C18 1.7 μm, 2.1 mm × 50 mm; the mobile phase Column A, 0.1% formic acid in water; and Column B, 0.1% formic acid in acetonitrile. The flow rate was 0.6 ml/min, the column temperature was 50 °C, and the injection volume was 2 µL. The MS conditions were as follows: scan type, positive MRM; ion source, turbo spray; ionization model, ESI; nebulizer gas 1, 55 psi; gas 2, 55 psi; curtain gas, 40 psi; CAD, 10; ionspray voltage, 5500 V; and temperature, 550 °C.
The LC/MS conditions for JV-MD2 (DHA) are described in Supplementary Table S3. The LC conditions were as follows: ACQUITY UPLC® BEH C18 1.7 μm, 2.1 mm × 50 mm; the mobile phase Column A, […] NH4AC in H2O; and Column B, CAN. The flow rate was 0.5 mL/min, the column temperature was 40 °C, and the injection volume was 4 µL. The MS conditions were as follows: scan type, negative MRM; ion source, turbo spray; ionization model, ESI; nebulizer gas 1, 55 psi; gas 2, 55 psi; curtain gas, 40 psi; CAD, 9; ionspray voltage, 5500 V; and temperature, 550 °C.

[1] = JV-DE1, monkey, NIODP OD, 159.3 μg/eye, 24 h
[2] = JV-DE1, monkey, NIODP OD, 160.6 μg/eye, 3 h
[3] = JV-DE1, monkey, NIODP OD, 162.2 μg/eye, 6 h
[4] = JV-DE1, monkey, NIODP OD, 179.1 μg/eye, 0.5 h

Drug in plasma (JV-DE1 0.53% w/w, monkey, NIODP periorbital skin OD, 159.3 μg/eye, 24 h, LLOQ 0.0001 µg/mL): BLQ | % Administered Dose, Cornea [1]: 0.0326% | % Administered Dose, Eyelid/periorbital skin [1]: 0.7501% | % Administered Dose, Retina [1]: 0.0002% | % Administered Dose, Vitreous humor [1]: 0.0018% | % Administered Dose, Cornea [2]: 0.3430% | % Administered Dose, Eyelid/periorbital skin [2]: 1.4956% | % Administered Dose, Retina [2]: 0.0004% | % Administered Dose, Vitreous humor [2]: 0.0029% | % Administered Dose, Cornea [3]: 0.5900% | % Administered Dose, Eyelid/periorbital skin [3]: 0.3477% | % Administered Dose, Retina [3]: 0.0005% | % Administered Dose, Vitreous humor [3]: 0.0031% | % Administered Dose, Cornea [4]: 0.1921% | % Administered Dose, Eyelid/periorbital skin [4]: 0.6370% | % Administered Dose, Retina [4]: 0.0004% | % Administered Dose, Vitreous humor [4]: 0.0047% | plasma concentrations (JV-DE1, monkey, NIODP about 165.3 µg/eye OD, all time points, LLOQ 0.0001 µg/mL): ≤ 0.3 ng/mL | maximum delivery efficiency in the retina (JV-DE1, monkey, via NIODP): 0.0005% | decrease of maximum retinal delivery efficiency, NIODP vs eye drop (JV-DE1, monkeys (NIODP) vs rabbits (eye drop), not head-to-head): about 10 fold | Cmax (cornea, topical or ocular, 165.3 ug, JV-DE1, monkey, NIODP about 165.3 µg/eye OD, read-out: Cmax in cornea): 9300 ng/g | concentration at 24 h (cornea, topical, JV-DE1, monkey, NIODP OD, 159.3 μg/eye, 24 h, read-out: Drug in OD Tissues, Cornea): 1620 ng/g | concentration at 3 h (cornea, topical, JV-DE1, monkey, NIODP OD, 160.6 μg/eye, 3 h, read-out: Drug in OD Tissues, Cornea): 16700 ng/g | concentration at 6 h (cornea, topical, JV-DE1, monkey, NIODP OD, 162.2 μg/eye, 6 h, read-out: Drug in OD Tissues, Cornea): 23900 ng/g | concentration at 0.5 h (cornea, topical, JV-DE1, monkey, NIODP OD, 179.1 μg/eye, 0.5 h, read-out: Drug in OD Tissues, Cornea): 9300 ng/g | concentration at 24 h (eyelid/periorbital skin (upper eyelid), topical, JV-DE1, monkey, NIODP OD, 159.3 μg/eye, 24 h, read-out: Drug in OD Tissues, Eyelid/periorbital skin): 11600 ng/g | concentration at 3 h (eyelid/periorbital skin (upper eyelid), topical, JV-DE1, monkey, NIODP OD, 160.6 μg/eye, 3 h, read-out: Drug in OD Tissues, Eyelid/periorbital skin): 32500 ng/g | concentration at 6 h (eyelid/periorbital skin (upper eyelid), topical, JV-DE1, monkey, NIODP OD, 162.2 μg/eye, 6 h, read-out: Drug in OD Tissues, Eyelid/periorbital skin): 7950 ng/g | concentration at 0.5 h (eyelid/periorbital skin (upper eyelid), topical, JV-DE1, monkey, NIODP OD, 179.1 μg/eye, 0.5 h, read-out: Drug in OD Tissues, Eyelid/periorbital skin): 26500 ng/g | Cmax (eyelid/periorbital skin, topical or ocular, 165.3 ug, JV-DE1, monkey, NIODP about 165.3 µg/eye OD, read-out: Cmax in eyelid/periorbital skin): 26500 ng/g | concentration at 3 h (plasma, topical, JV-DE1 0.53% w/w, monkey, NIODP periorbital skin OD, 160.6 μg/eye, 3 h, read-out: Drug in plasma): 0.2 ng/mL | concentration at 6 h (plasma, topical, JV-DE1 0.53% w/w, monkey, NIODP periorbital skin OD, 162.2 μg/eye, 6 h, read-out: Drug in plasma): 0.3 ng/mL | concentration at 0.5 h (plasma, topical, JV-DE1 0.53% w/w, monkey, NIODP periorbital skin OD, 179.1 μg/eye, 0.5 h, read-out: Drug in plasma): 0.1 ng/mL | Cmax (retina, topical or ocular, 165.3 ug, JV-DE1, monkey, NIODP about 165.3 µg/eye OD, read-out: Cmax in retina): 45.5 ng/g | Cmax (retina, topical, 165.3 µg per eye, JV-DE1, monkey, NIODP, read-out: retinal Cmax): 147 nM | concentration at 24 h (retina, topical, JV-DE1, monkey, NIODP OD, 159.3 μg/eye, 24 h, read-out: Drug in OD Tissues, Retina): 5.5 ng/g | concentration at 3 h (retina, topical, JV-DE1, monkey, NIODP OD, 160.6 μg/eye, 3 h, read-out: Drug in OD Tissues, Retina): 27.9 ng/g | concentration at 6 h (retina, topical, JV-DE1, monkey, NIODP OD, 162.2 μg/eye, 6 h, read-out: Drug in OD Tissues, Retina): 45.5 ng/g | concentration at 0.5 h (retina, topical, JV-DE1, monkey, NIODP OD, 179.1 μg/eye, 0.5 h, read-out: Drug in OD Tissues, Retina): 39.6 ng/g | Cmax (vitreous humor, topical or ocular, 165.3 ug, JV-DE1, monkey, NIODP about 165.3 µg/eye OD, read-out: Cmax in vitreous humor): 19 ng/mL | concentration at 24 h (vitreous humor, topical, JV-DE1, monkey, NIODP OD, 159.3 μg/eye, 24 h, read-out: Drug in OD Tissues, Vitreous humor): 19 ng/mL | concentration at 3 h (vitreous humor, topical, JV-DE1, monkey, NIODP OD, 160.6 μg/eye, 3 h, read-out: Drug in OD Tissues, Vitreous humor): 7.9 ng/mL | concentration at 6 h (vitreous humor, topical, JV-DE1, monkey, NIODP OD, 162.2 μg/eye, 6 h, read-out: Drug in OD Tissues, Vitreous humor): 3.9 ng/mL | concentration at 0.5 h (vitreous humor, topical, JV-DE1, monkey, NIODP OD, 179.1 μg/eye, 0.5 h, read-out: Drug in OD Tissues, Vitreous humor): 15.2 ng/mL
SMILES: CC(C)Oc1ccc(Cc2ccc(NC3=NCCN3)cc2)cc1 [JV-DE1, 4,5-dihydro-N-[4-[[4-(1-methylethoxy)phenyl]methyl]phenyl]-1H-imadazol-2-amine]
